The results in this text go back to patent publication US12358879B2, “Heterocyclic compound” (Takeda Pharmaceutical Company Limited, priority 2019, dated 2025).

The test system of this experiment is Skin fibroblasts derived from FA patients (GM4078). In words: RSL3-induced cell death inhibitory activity in skin fibroblasts derived from FA patients (ATP, CellTiter-Glo). The settings on record: 3 μmol/l RSL3, 24 hours. In kind it is cell-based, human. On the procedure: The effects of the compounds according to the present disclosure were evaluated according to the literature (M. G. Cotticelli et al, J Pharmacol Exp Ther 2019, 369, 47-54.).
Skin fibroblasts derived from FA patients (Coriell Institute for Medical Research, GM4078) were cultured in a culture medium consisting of DMEM (Thermo Fisher Scientific, 11995-065), 10% fetal bovine serum (Thermo Fisher Scientific, 26140-087), 1% GlutaMAX supplement (Thermo Fisher Scientific, 35050-061) and 1% Penicillin-Streptomycin solution (FUJIFILM Wako Pure Chemical Corporation, 168-23191).
For assay, the fibroblasts in the above culture medium were seeded in a 384-well plate at 1,500 cells per well, and the test compound and 3 μmol/l (final concentration) RSL3 were added to the plate the day after seeding. The concentration of the test compound added to the assay plate was 0.01, 0.1, 1 and 10 μmol/l as 4 points, and DMSO was added as a negative control for the test compound and RSL3. Twenty-four hours after the addition of RSL3/the test compound, CellTiter-Glo Luminescent Cell Viability Assay solution (Promega, G7573) was added to the plate to lyse the cells, and ATP was measured as an index of cell viability by detecting chemiluminescence with a plate reader.
RSL3-induced cell death inhibitory activity of the test compound=((X−C)/(T−C))×100 • X: ATP in the RSL3 addition/the test compound addition group, • C: ATP in the RSL3 addition/the test compound non-addition group, • T: ATP in the RSL3 non-addition/the test compound non-addition group
Background: In ATP-based viability assays light output follows the ATP content of the culture.

Regarding `COc1c(Nc2nn(C)c3cc(C(C)(C)O)ccc23)cnn1CC(C)C` [Example 40, 2-(3-{[5-methoxy-1-(2-methylpropyl)-1H-pyrazol-4-yl]amino}-1-methyl-1H-indazol-6-yl)propan-2-ol], the “RSL3-induced cell death inhibitory activity (%) at each compound concentration (μmol/l)” value is 40.7% (compound 0.01 μmol/l), 63.0% (compound 0.1 μmol/l), 98.1% (compound 1 μmol/l) and 94.9% (compound 10 μmol/l).

Consider `COc1nn(C)cc1Nc1nn(C)c2ccc(C(C)(C)O)cc12` [Example 41, 2-{3-[(3-methoxy-1-methyl-1H-pyrazol-4-yl)amino]-1-methyl-1H-indazol-5-yl}propan-2-ol], for which the “RSL3-induced cell death inhibitory activity (%) at each compound concentration (μmol/l)” value is given as 21.3% (compound 0.01 μmol/l), 40.8% (compound 0.1 μmol/l), 58.1% (compound 1 μmol/l) and 71.7% (compound 10 μmol/l).

Regarding `COc1c(Nc2nn(C)c3cc(C(C)(C)O)cc(F)c23)cnn1CC(C)C` [Example 44, 2-(4-fluoro-3-{[5-methoxy-1-(2-methylpropyl)-1H-pyrazol-4-yl]amino}-1-methyl-1H-indazol-6-yl)propan-2-ol], the “RSL3-induced cell death inhibitory activity (%) at each compound concentration (μmol/l)” value by setting is: (compound 0.01 μmol/l) 38.3%; (compound 0.1 μmol/l) 61.3%; (compound 1 μmol/l) 78.4%; (compound 10 μmol/l) 95.0%.

Consider `COc1nn(C)cc1Nc1nn(CC2CC2)c2cc(C(C)(C)O)ccc12` [Example 49, 2-{1-(cyclopropylmethyl)-3-[(3-methoxy-1-methyl-1H-pyrazol-4-yl)amino]-1H-indazol-6-yl}propan-2-ol], for which the “RSL3-induced cell death inhibitory activity (%) at each compound concentration (μmol/l)” value came out at 37.8% (compound 0.01 μmol/l), 64.9% (compound 0.1 μmol/l), 96.5% (compound 1 μmol/l) and 93.0% (compound 10 μmol/l).

In the case of `Cn1nc(Nc2cnn3c2OCCC3)c2cc(F)c(C(C)(C)O)cc21` [Example 56, 2-{3-[(6,7-dihydro-5H-pyrazolo[5,1-b][1,3]oxazin-3-yl)amino]-5-fluoro-1-methyl-1H-indazol-6-yl}propan-2-ol], the “RSL3-induced cell death inhibitory activity (%) at each compound concentration (μmol/l)” value is, setting by setting: (compound 0.01 μmol/l) 47.4%; (compound 0.1 μmol/l) 69.3%; (compound 1 μmol/l) 94.2%; (compound 10 μmol/l) 90.3%.

For the compound `Cn1nc(NC2CCCCC2)c2cc(C(C)(C)O)ccc21` [Example 59, 2-[3-(cyclohexylamino)-1-methyl-1H-indazol-5-yl]propan-2-ol], the “RSL3-induced cell death inhibitory activity (%) at each compound concentration (μmol/l)” value amounted to 48.0% (compound 0.01 μmol/l), 65.9% (compound 0.1 μmol/l), 93.3% (compound 1 μmol/l) and 95.9% (compound 10 μmol/l).

On to `COc1nn(C)cc1Nc1nn(C2CCC2)c2cc(C(C)(C)O)ccc12` [Example 68, 2-{1-cyclobutyl-3-[(3-methoxy-1-methyl-1H-pyrazol-4-yl)amino]-1H-indazol-6-yl}propan-2-ol], for which the “RSL3-induced cell death inhibitory activity (%) at each compound concentration (μmol/l)” value (compound 0.01 μmol/l) is 49.5%, the “RSL3-induced cell death inhibitory activity (%) at each compound concentration (μmol/l)” value (compound 0.1 μmol/l) came out at 66.1%, the “RSL3-induced cell death inhibitory activity (%) at each compound concentration (μmol/l)” value (compound 1 μmol/l) is 95.5% and the “RSL3-induced cell death inhibitory activity (%) at each compound concentration (μmol/l)” value (compound 10 μmol/l) came to 93.7%.

On to `COc1nn(C)cc1Nc1nn(C2CCC2)c2ccc(C(C)(C)O)cc12` [Example 70, 2-{1-cyclobutyl-3-[(3-methoxy-1-methyl-1H-pyrazol-4-yl)amino]-1H-indazol-5-yl}propan-2-ol], for which the “RSL3-induced cell death inhibitory activity (%) at each compound concentration (μmol/l)” value was 12.1% (compound 0.01 μmol/l), 86.1% (compound 0.1 μmol/l), 89.2% (compound 1 μmol/l) and 82.2% (compound 10 μmol/l).

In the case of `COc1nn(C)cc1Nc1nn(CC2CC2(F)F)c2cc(C(C)(C)O)ccc12` (stereo not shown) [Example 77, 2-{1-[(2,2-difluorocyclopropyl)methyl]-3-[(3-methoxy-1-methyl-1H-pyrazol-4-yl)amino]-1H-indazol-6-yl}propan-2-ol], the “RSL3-induced cell death inhibitory activity (%) at each compound concentration (μmol/l)” value (compound 0.01 μmol/l) was 17.7%, the “RSL3-induced cell death inhibitory activity (%) at each compound concentration (μmol/l)” value (compound 0.1 μmol/l) worked out at 46.4%, the “RSL3-induced cell death inhibitory activity (%) at each compound concentration (μmol/l)” value (compound 1 μmol/l) amounted to 76.2% and the “RSL3-induced cell death inhibitory activity (%) at each compound concentration (μmol/l)” value (compound 10 μmol/l) is 77.1%.

Regarding `COCc1nn(C)cc1Nc1nn(C2CCC2)c2cc(C(C)(C)O)ccc12` [Example 82, 2-(1-cyclobutyl-3-{[3-(methoxymethyl)-1-methyl-1H-pyrazol-4-yl]amino}-1H-indazol-6-yl)propan-2-ol], the “RSL3-induced cell death inhibitory activity (%) at each compound concentration (μmol/l)” value (compound 0.01 μmol/l) came out at 1.9%, the “RSL3-induced cell death inhibitory activity (%) at each compound concentration (μmol/l)” value (compound 0.1 μmol/l) is given as 41.6%, the “RSL3-induced cell death inhibitory activity (%) at each compound concentration (μmol/l)” value (compound 1 μmol/l) is 64.0% and the “RSL3-induced cell death inhibitory activity (%) at each compound concentration (μmol/l)” value (compound 10 μmol/l) turned out to be 73.8%.

In the case of `COCc1nn(C)cc1Nc1nn(CC2CC2)c2cc(C(C)(C)O)ccc12` [Example 84, 2-[1-(cyclopropylmethyl)-3-{[3-(methoxymethyl)-1-methyl-1H-pyrazol-4-yl]amino}-1H-indazol-6-yl]propan-2-ol], the “RSL3-induced cell death inhibitory activity (%) at each compound concentration (μmol/l)” value reads like this: (compound 0.01 μmol/l) 12.4%; (compound 0.1 μmol/l) 47.5%; (compound 1 μmol/l) 75.7%; (compound 10 μmol/l) 73.8%.

As for `COCc1nn(C)cc1Nc1nn(C(C)C)c2cc(C(C)(C)O)ccc12` [Example 85, 2-[3-{[3-(methoxymethyl)-1-methyl-1H-pyrazol-4-yl]amino}-1-(propan-2-yl)-1H-indazol-6-yl]propan-2-ol], the “RSL3-induced cell death inhibitory activity (%) at each compound concentration (μmol/l)” value reads like this: (compound 0.01 μmol/l) 11.4%; (compound 0.1 μmol/l) 43.2%; (compound 1 μmol/l) 68.4%; (compound 10 μmol/l) 72.6%.

With `COCc1nn(C)cc1Nc1nn(C2CCC2)c2ccc(C(C)(C)O)cc12` [Example 88, 2-(1-cyclobutyl-3-{[3-(methoxymethyl)-1-methyl-1H-pyrazol-4-yl]amino}-1H-indazol-5-yl)propan-2-ol], the “RSL3-induced cell death inhibitory activity (%) at each compound concentration (μmol/l)” value (compound 0.01 μmol/l) came to 13.6%, the “RSL3-induced cell death inhibitory activity (%) at each compound concentration (μmol/l)” value (compound 0.1 μmol/l) was determined as 61.2%, the “RSL3-induced cell death inhibitory activity (%) at each compound concentration (μmol/l)” value (compound 1 μmol/l) came to 73.0% and the “RSL3-induced cell death inhibitory activity (%) at each compound concentration (μmol/l)” value (compound 10 μmol/l) is listed as 72.7%.
